Read-outs that look alike come from different tables or passages of the source.
Assays:
[1] = molecular target: T1, glutathione-S-transferase (GST) tagged LXRbeta LBD (ligand binding domain) (Homo sapiens, UniProt P55055); assay: LanthaScreen TR-FRET Liver X Receptor Coactivator Assay, LXR beta; format: biochemical; settings: for EC50: potency (Inflection Point), compound-induced co-activator recruitment, TR-FRET; for Emax: read-out: LXR beta actiivty at max dose, efficacy (% Emax) in relation to reference dual agonist T0901317
T1 construct: purchased Invitrogen pv4658
T1 sequence (P55055 222-460 limits assumed): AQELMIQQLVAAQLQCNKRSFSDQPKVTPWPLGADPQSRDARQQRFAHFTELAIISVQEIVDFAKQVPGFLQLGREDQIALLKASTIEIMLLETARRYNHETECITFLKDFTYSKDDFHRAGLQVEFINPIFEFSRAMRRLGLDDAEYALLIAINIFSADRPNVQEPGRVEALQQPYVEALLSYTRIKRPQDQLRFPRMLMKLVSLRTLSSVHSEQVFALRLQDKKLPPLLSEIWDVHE
In short: (§1)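 TR-FRET coactivator recruitment read-out: compounds first received either LBD, followed by a mix of terbium-labelled anti-GST antibody and fluorescein coactivator peptide. Signal measured by time-resolved FRET once plates had incubated at room temperature.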

[2] = molecular target: T2, glutathione-S-transferase (GST) tagged LXRalpha LBD (ligand binding domain) (Homo sapiens, UniProt Q13133); assay: biochemical
T2 construct: purchased Invitrogen pv4655
T2 sequence (Q13133 209-447 limits assumed): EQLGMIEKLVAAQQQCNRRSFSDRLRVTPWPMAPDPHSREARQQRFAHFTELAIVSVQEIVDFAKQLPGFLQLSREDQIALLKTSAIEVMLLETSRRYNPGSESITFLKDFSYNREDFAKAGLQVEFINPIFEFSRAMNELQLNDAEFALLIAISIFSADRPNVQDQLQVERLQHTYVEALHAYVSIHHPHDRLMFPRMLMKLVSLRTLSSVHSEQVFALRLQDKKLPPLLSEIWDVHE
In short: as §1

[3] = efficacy (% Emax) in relation to reference dual agonist T0901317
[4] = potency (Inflection Point), compound-induced co-activator recruitment, TR-FRET, read-out: LXR alpha IP
[5] = potency (Inflection Point), compound-induced co-activator recruitment, TR-FRET
[6] = read-out: LXR alpha actiivty at max dose, efficacy (% Emax) in relation to reference dual agonist T0901317
[7] = LXR alpha IP, potency (Inflection Point), compound-induced co-activator recruitment, TR-FRET
[8] = efficacy (% Emax) in relation to reference dual agonist T0901317, read-out: LXR alpha actiivty at max dose

| Compound | EC50 ([1]; LXR beta IP) [nM] | Emax [1] [%] | LXR alpha IP [2, 5] | Emax [2, 6] [%] | further results |
| --- | --- | --- | --- | --- | --- |
| 4-(2-((1S,2R or 1R, 2S)- 2-(1-((R or S)-2-amino- 3,3,3-trifluoro-2- phenylpropanoyl) piperidin-4- yl)cyclopropyl)ethoxy)-2- chloro-N- methylbenzamide [Example 10-4] | – | – | – | – | LXR beta actiivty at max dose [1, 3]: 147%; EC50 ([1]; read-out: LXR beta IP): 8 nM; LXR alpha actiivty at max dose [2, 3]: 83%; EC50 [2, 4]: 586 nM |
| CN(C(=O)c1ccc(OCCCCC2CCN(C(=O)[C@](O)(c3ccccc3)C(F)(F)F)CC2)cc1Cl)[C@H]1CCOC1 (single isomer, unassigned) [Example 8-16, 2-chloro-N-methyl-N-((S or R)-tetrahydro-furan-3-yl)-4-(4-(1-((R or S)-3,3,3-trifluoro-2-hydroxy-2-phenylpropanoyl)piperidin-4-yl)butoxy) benzamide] | 10 | 71 | – | 32 | EC50 [2, 7]: 116 nM |
| CN(C)C(=O)c1ccc(OCCCC2CCN(C(=O)c3cc(F)ccc3F)CC2)cc1Cl [Example 3-1, 2-chloro-4-(3-(1-(2,5-difluorobenzoyl)piperidin-4-yl)propoxy)-N,N-dimethylbenzamide] | 501 | 62 | – | – | LXR alpha IP [2]: No IP; Emax ([2]; read-out: LXR alpha actiivty at max dose): 32% |
| Cc1cc(OC2CC(CC3CCN(C(=O)C(O)(c4cccc(OC5CC5)c4)C(F)(F)F)CC3)C2)ccc1C(=O)N(C)C (single isomer, unassigned) [Example 37-12, (R or S)-4-(3-((1-(2-(3-cyclopropoxyphenyl)-3,3,3-trifluoro-2-hydroxypropanoyl)piperidin-4-yl)methyl)cyclobutoxy)-N,N,2-trimethylbenzamide] | 63 | 106 | No IP | 0 | – |
| CNC(=O)c1ccc(OCC[C@@H]2C[C@@H]2C2CCN(C(=O)[C@](O)(c3cccc(OC)c3)C(F)(F)F)CC2)cc1Cl (single isomer, unassigned) [Example 10-5, 2-chloro-N-methyl-4-(2-((1S,2R or 1R, 2S)-2-(1-((R or S)-3,3,3-trifluoro-2-hydroxy-2-(3-methoxyphenyl)propanoyl)piperidin-4-yl)cyclopropyl)ethoxy) benzamide] | 7 | 75 | – | 13 | EC50 [2, 7]: 209 nM |
| O=C(c1cscn1)N1CCC(CCCCOc2ccc(C(=O)N3CCCC3)c(Cl)c2)CC1 [Example 8-20, (2-chloro-4-(4-(1-(thiazole-4-carbonyl)piperidin-4-yl)butoxy)phenyl) (pyrrolidin-1-yl)methanone] | 4410 | 25 | No IP | 4 | – |
| COc1cccc(C(O)(C(=O)N2CCC(C(F)CCCOc3ccc(C(=O)N(C)C)c(Cl)c3)CC2)C(F)(F)F)c1 (single isomer, unassigned) [Example 21-1, 2-chloro-4-(4-fluoro-4-(1-((R or S)-3,3,3-trifluoro-2-hydroxy-2-(3-methoxyphenyl)propanoyl)piperidin-4-yl)butoxy)-N,N-dimethylbenzamide] | 9 | 75 | – | – | Emax [2, 8]: 27%; EC50 [2, 4]: 422 nM |
| COc1cccc([C@@](O)(C(=O)N2CCC(CC[C@H](C)COc3ccc(C(N)=O)c(Cl)c3)CC2)C(F)(F)F)c1 (single isomer, unassigned) [Example 24-1, 2-chloro-4-((R or S)-2-methyl-4-(1-((S or R)-3,3,3-trifluoro-2-hydroxy-2-(3-methoxyphenyl)propanoyl)piperidin-4-yl)butoxy)benzamide] | 33 | 54 | No IP | – | Emax [2, 8]: 14% |
| COc1cccc(C(O)(C(=O)N2CCC(CCCCOc3ccc(C(=O)N(C)C)c(OC)c3)CC2)C(F)(F)F)c1 (single isomer, unassigned) [Example 5-1, (R or S)-2-methoxy-N,N-dimethyl-4-(4-(1-(3,3,3-trifluoro-2-hydroxy-2-(3-methoxyphenyl)propanoyl)piperidin-4-yl)butoxy)benzamide] | 36 | 66 | No IP | – | Emax [2, 8]: 7% |
| CN(C)C(=O)c1ccc(OCCC2CC3(CCN(C(=O)C(O)(c4ccccc4)C(F)(F)F)CC3)C2)cc1Cl (single isomer, unassigned) [Example 34-1, 2-chloro-N,N-dimethyl-4-(2-(7-((R or S)-3,3,3-trifluoro-2-hydroxy-2-phenylpropanoyl)-7-azaspiro[3.5]nonan-2-yl)ethoxy)benzamide] | 16 | 113 | – | 46 | EC50 [2, 7]: 551 nM |

Further lines, with some results ahead:

| EC50 ([1]; LXR beta IP) [nM] | Emax [1] [%] | LXR alpha IP [2, 5] | Emax [2, 6] [%] | Compound | further results |
| --- | --- | --- | --- | --- | --- |
| 81 | 60 | No IP | 28 | CN(C)C(=O)c1ccc(OCCC2CC23CCN(C(=O)C2(c4ccc(Br)cc4)COC2)CC3)cc1Cl (single isomer, unassigned) [Example 12-12, (S or R)-4-(2-(6-(3-(4-bromophenyl)oxetane-3-carbonyl)-6-azaspiro[2.5]octan-1-yl)ethoxy)-2-chloro-N,N-dimethylbenzamide] | – |
| 47 | 32 | No IP | 0 | CN(C)C(=O)c1ccc(OCCC2CC23CCN(C(=O)C(C)(C)c2cccc(Br)n2)CC3)cc1Cl (single isomer, unassigned) [Example 12-20, (S or R)-4-(2-(6-(2-(6-bromopyridin-2-yl)-2-methylpropanoyl)-6-azaspiro[2.5]octan-1-yl)ethoxy)-2-chloro-N,N-dimethylbenzamide] | – |
| 220 | 60 | No IP | 8 | CN(C)C(=O)c1ccc(OCC2CC3(CCN(C(=O)C(C)(C)c4ccccc4)CC3)C2)cc1Cl [Example 33-2, 2-chloro-N,N-dimethyl-4-((7-(2-methyl-2-phenylpropanoyl)-7-azaspiro[3.5]nonan-2-yl)methoxy)benzamide] | – |
| 50 | 65 | No IP | 0 | CN(C)C(=O)c1ccc(OCC[C@H]2CC23CCN(C(=O)[C@](N)(c2ccccc2)C(F)(F)F)CC3)cc1Cl (single isomer, unassigned) [Example 12-9, 4-(2-((R or S)-6-((R or S)-2-amino-3,3,3-trifluoro-2-phenylpropanoyl)-6-azaspiro[2.5]octan-1-yl)ethoxy)-2-chloro-N,N-dimethylbenzamide] | – |
| 41 | 81 | No IP | 6 | COc1ccccc1[C@@](O)(C(=O)N1CCC2(CC1)C[C@H]2CCCOc1ccc(C(=O)N(C)C)c(Cl)c1)C(F)(F)F (single isomer, unassigned) [Example 14-3, 2-chloro-N,N-dimethyl-4-(3-((R or S)-6-((R or S)-3,3,3-trifluoro-2-hydroxy-2-(2-methoxyphenyl)propanoyl)-6-azaspiro[2.5]octan-1-yl)propoxy)benzamide] | – |
| 6 | 116 | – | 23 | COc1cccc([C@@](O)(C(=O)N2CCC3(CC2)C[C@@H]3CCCOc2ccc(C(=O)N(C)C)c(Cl)c2)C(F)(F)F)c1 (single isomer, unassigned) [Example 14-6, 2-chloro-N,N-dimethyl-4-(3-((S or R)-6-((R or S)-3,3,3-trifluoro-2-hydroxy-2-(3-methoxyphenyl)propanoyl)-6-azaspiro[2.5]octan-1-yl)propoxy)benzamide] | EC50 [2, 7]: 162 nM |
| 182 | 22 | No IP | 0 | CN(C)C(=O)c1ccc(OCCC2CC23CCN(C(=O)C2(c4ccccc4)CCCN(C(=O)OC(C)(C)C)C2)CC3)cc1Cl (single isomer, unassigned) [Example 12-4, tert-butyl 3-((R or S)-1-(2-(3-chloro-4-(dimethylcarbamoyl)phenoxy)ethyl)-6-azaspiro[2.5]octane-6-carbonyl)-3-phenylpiperidine-1-carboxylate] | – |
| 101 | 91 | – | – | C[C@H](CCCC1CCN(C(=O)[C@](O)(c2ccccc2)C(F)(F)F)CC1)Oc1ccc(C(=O)N(C)C)c(Cl)c1 (single isomer, unassigned) [Example 25-1, 2-chloro-N,N-dimethyl-4-((R or S)-5-(1-((R or S)-3,3,3-trifluoro-2-hydroxy-2-phenylpropanoyl)piperidin-4-yl)pentan-2-yloxy)benzamide] | Emax [2, 8]: 29%; EC50 [2, 4]: 1160 nM |
